Calls of active or inactive are those of the source. No rule for the calls is given here.
Test system: rodent carcinogenicity bioassays, tumor incidence
Assay: CCRIS carcinogenicity studies
Outline: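 NCI-built, expert-reviewed records of carcinogenicity and related test outcomes (mutagenicity, tumor promotion/inhibition) compiled from published and report sources, historical span 1985-2011, not updated.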

O=[N+]([O-])c1ccc2ccc3cccc4ccc1c2c34
carcinogen call (Species: HAMSTER, Strain/Sex: SYRIAN/MALE, Route: INTRATRACHEAL, Dose: 0, 1, 2 MG ADSORBED ONTO CARBON CARRIER PARTICLES IN 0.2 ML SALINE 1/WK FOR 92 WK (STUDY DURATION: 92 WK), Dose: 0, 1, 2 MG ADSORBED ONTO CARBON CARRIER PARTICLES IN 0.2 ML SALINE 1/WK FOR 92 WK (STUDY DURATION: 92 WK)): inactive; negative | carcinogen call (Species: HAMSTER, Strain/Sex: SYRIAN/MALE, Route: INTRATRACHEAL, Dose: 0, 1, 2 MG ADSORBED ONTO CARBON CARRIER PARTICLES IN 0.2 ML SALINE 2/WK FOR 92 WK (STUDY DURATION: 92 WK), Dose: 0, 1, 2 MG ADSORBED ONTO CARBON CARRIER PARTICLES IN 0.2 ML SALINE 2/WK FOR 92 WK (STUDY DURATION: 92 WK)): inactive; negative | carcinogen call (Species: MOUSE, Strain/Sex: B6C3F1/FEMALE, Route: INTRAPERITONEAL, Dose: 0, 7 NMOL (TOTAL DOSE), 1/7, 2/7 AND 4/7 OF THE TOTAL DOSE ADMINISTERED WITHIN 24 HR OF BIRTH AND AT 8 AND 15 D OF AGE): inactive; negative | carcinogen call (Species: MOUSE, Strain/Sex: B6C3F1/MALE, Route: INTRAPERITONEAL, Dose: 0, 7 NMOL (TOTAL DOSE), 1/7, 2/7 AND 4/7 OF THE TOTAL DOSE ADMINISTERED WITHIN 24 HR OF BIRTH AND AT 8 AND 15 D OF AGE): inactive; negative | carcinogen call (Species: MOUSE, Strain/Sex: BALB/MALE, Route: SUBCUTANEOUS, Dose: 0, 0.1 MG IN DMSO 1/WK FOR 20 WK (STUDY DURATION: 60 WK)): inactive; negative | carcinogen call (Species: MOUSE, Strain/Sex: ICR/FEMALE, Route: INTRAPERITONEAL, Dose: 0, 21 UG TOTAL DOSE (3 UG/5 µL, 6 UG/10 µL, 12 UG/20 µL DMSO ON DAYS 1,8 AND 15), 105 UG TOTAL DOSE (15 UG/5 µL, 30 UG/1, Dose: 0, 21 UG TOTAL DOSE (3 UG/5 µL, 6 UG/10 µL, 12 UG/20 µL DMSO ON DAYS 1,8 AND 15), 105 UG TOTAL DOSE (15 UG/5 µL, 30 UG/1): inactive; negative | carcinogen call (Species: MOUSE, Strain/Sex: ICR/MALE, Route: INTRAPERITONEAL, Dose: 0, 21 UG TOTAL DOSE (3 UG/5 µL, 6 UG/10 µL, 12 UG/20 µL DMSO ON DAYS 1,8 AND 15), 105 UG TOTAL DOSE (15 UG/5 µL, 30 UG/1, Dose: 0, 21 UG TOTAL DOSE (3 UG/5 µL, 6 UG/10 µL, 12 UG/20 µL DMSO ON DAYS 1,8 AND 15), 105 UG TOTAL DOSE (15 UG/5 µL, 30 UG/1): inactive; negative | carcinogen call (Species: MOUSE, Strain/Sex: STRAIN-A/FEMALE, Route: INTRAPERITONEAL, Dose: 0, 0.71, 2.14, 6.44 MMOL/KG IN 0.1 ML TRIOCTANOIN TOTAL DOSE ADMINISTERED AS 3 INJECTIONS/WK FOR 17 INJECTIONS (STUDY DU, Dose: 0, 0.71, 2.14, 6.44 MMOL/KG IN 0.1 ML TRIOCTANOIN TOTAL DOSE ADMINISTERED AS 3 INJECTIONS/WK FOR 17 INJECTIONS (STUDY DU, Tumor Site: Type of Lesion: LUNG: ADENOMA): active; positive | carcinogen call (Species: MOUSE, Strain/Sex: STRAIN-A/MALE, Route: INTRAPERITONEAL, Dose: 0, 0.71, 2.14, 6.44 MMOL/KG IN 0.1 ML TRIOCTANOIN TOTAL DOSE ADMINISTERED AS 3 INJECTIONS/WK FOR 17 INJECTIONS (STUDY DU, Dose: 0, 0.71, 2.14, 6.44 MMOL/KG IN 0.1 ML TRIOCTANOIN TOTAL DOSE ADMINISTERED AS 3 INJECTIONS/WK FOR 17 INJECTIONS (STUDY DU, Tumor Site: Type of Lesion: LUNG: ADENOMA): active; positive | carcinogen call (Species: RAT, Strain/Sex: F344/DUCRJ FISCHER/MALE, Route: SUBCUTANEOUS, Dose: 2 MG TWICE WEEKLY FOR 10 WK (STUDY DURATION: 52 WK), Tumor Site: Type of Lesion: INTEGUMENTARY SYSTEM: FIBROUS HISTIOCYTOMAS): active; positive | carcinogen call (Species: RAT, Strain/Sex: F344/FEMALE, Route: SUBCUTANEOUS, Dose: 0, 40 UMOL (TOTAL DOSE) ADMINISTERED OVER 8 WK BEGINNING WITHIN 24 HR OF BIRTH (STUDY DURATION: 86 WK), Tumor Site: Type of Lesion: HEMATOPOIETIC SYSTEM: LEUKEMIA): active; positive | carcinogen call (Species: RAT, Strain/Sex: F344/MALE, Route: SUBCUTANEOUS, Dose: 0, 0.2, 2 MG 2/WK FOR 10 WK (STUDY DURATION: 650 D), Dose: 0, 0.2, 2 MG 2/WK FOR 10 WK (STUDY DURATION: 650 D)): inactive; negative | carcinogen call (Species: RAT, Strain/Sex: F344/MALE, Route: SUBCUTANEOUS, Dose: 2 MG IN DMSO 2/WK FOR 10 WK, Tumor Site: Type of Lesion: INJECTION SITE: MALIGNANT FIBROUS HISTIOCYTOMA): active; positive | carcinogen call (Species: RAT, Strain/Sex: SPRAGUE-DAWLEY/FEMALE, Route: SUBCUTANEOUS, Dose: 0, 50, 100 UMOL/KG IN DMSO 1/WK FOR 8 WK (STUDY DURATION: 62 WK), Dose: 0, 50, 100 UMOL/KG IN DMSO 1/WK FOR 8 WK (STUDY DURATION: 62 WK), Tumor Site: Type of Lesion: INJECTION SITE: MALIGNANT FIBROUS HISTIOCYTOMA, MAMMARY GLAND: FIBROADENOMA, ADENOCARCINOMA): active; positive | carcinogen call (Species: RAT, Strain/Sex: SPRAGUE-DAWLEY/MALE, Route: SUBCUTANEOUS, Dose: 0, 50, 100 UMOL/KG IN DMSO 1/WK FOR 8 WK (STUDY DURATION: 62 WK), Dose: 0, 50, 100 UMOL/KG IN DMSO 1/WK FOR 8 WK (STUDY DURATION: 62 WK), Tumor Site: Type of Lesion: INJECTION SITE: MALIGNANT FIBROUS HISTIOCYTOMA): active; positive | carcinogen call (Species: RAT, Strain/Sex: STRAIN CD/FEMALE, Route: INTRAGASTRIC, Dose: 0, 10 UMOL IN DMSO 3/WK FOR 4 WK (TOTAL DOSE: 16 UMOL/RAT) (STUDY DURATION: 78 WK)): inactive; negative | carcinogen call (Species: RAT, Strain/Sex: STRAIN CD/FEMALE, Route: INTRAPERITONEAL, Dose: 0, 10 UMOL IN DMSO 3/WK FOR 4 WK (TOTAL DOSE: 16 UMOL/RAT) (STUDY DURATION: 78 WK), Tumor Site: Type of Lesion: MAMMARY GLAND: ADENOCARCINOMA, FIBROADENOMA): active; positive | carcinogen call (Species: RAT, Strain/Sex: STRAIN CD/FEMALE, Route: INTRAPERITONEAL, Dose: 0, 10 UMOL IN DMSO 3/WK FOR 4 WK (TOTAL DOSE: 16 UMOL/RAT) (STUDY DURATION: 78 WK), Tumor Site: Type of Lesion: PITUITARY GLAND: CARCINOMA): active; positive | carcinogen call (Species: RAT, Strain/Sex: STRAIN-CD/FEMALE, Route: GAVAGE, Dose: 0, 50 UMOL IN 0.5 ML TRIOCTANOIN 1/WK FOR 8 WK (STUDY DURATION: 49 WK), Tumor Site: Type of Lesion: MAMMARY GLAND: FIBROADENOMA): active; positive | carcinogen call (Species: RAT, Strain/Sex: STRAIN-CD/FEMALE, Route: INJECTION, Dose: 0, 0.1 ML OF 20.3 UMOL/ML DMSO INJECTED INTO MAMMARY TISSUE OF THE 3 LEFT THORACIC NIPPLES FOLLOWED THE NEXT D BY SIMILA): inactive; negative | carcinogen call (Species: RAT, Strain/Sex: STRAIN-CD/FEMALE, Route: INJECTION, Dose: 0, 0.1 ML OF A 20.3 UMOL/ML SOLUTION IN DMSO INJECTED INTO MAMMARY TISSUE UNDERLYING 3 LEFT THORACIC NIPPLES THE FOLLOWI): inactive; negative | carcinogen call (Species: RAT, Strain/Sex: STRAIN-CD/FEMALE, Route: INTRAPERITONEAL, Dose: 0, 67 UMOL/KG BW IN DMSO 3/WK FOR 4 WK (STUDY DURATION: 61 WK)): inactive; negative | carcinogen call (Species: RAT, Strain/Sex: STRAIN-CD/FEMALE, Route: INTRAPERITONEAL, Dose: 0, 67 UMOL/KG/BW IN 25 UMOL/ML DMSO 3/WK FOR 4 WK (TOTAL DOSE: 0; 119 UMOL) ADMINISTERED TO WEANLING RATS (STUDY DURATIO, Dose: 0, 67 UMOL/KG/BW IN 25 UMOL/ML DMSO 3/WK FOR 4 WK (TOTAL DOSE: 0; 119 UMOL) ADMINISTERED TO WEANLING RATS (STUDY DURATIO): inactive; negative | carcinogen call (Species: RAT, Strain/Sex: STRAIN-CD/FEMALE, Route: INTRAPERITONEAL, Dose: 0, 100 UMOL/KG BW IN DMSO 1/WK FOR 4 WK (STUDY DURATION: 90 WK), Tumor Site: Type of Lesion: MAMMARY GLAND: ADENOCARCINOMA): active; positive | carcinogen call (Species: RAT, Strain/Sex: STRAIN-CD/FEMALE, Route: INTRAPERITONEAL, Dose: 0, 100 UMOL/KG/BW IN 70 UMOL/ML DMSO 1/WK FOR 4 WK (TOTAL DOSE: 0; 77.3 UMOL) ADMINISTERED TO WEANLING RATS (STUDY DURAT, Dose: 0, 100 UMOL/KG/BW IN 70 UMOL/ML DMSO 1/WK FOR 4 WK (TOTAL DOSE: 0; 77.3 UMOL) ADMINISTERED TO WEANLING RATS (STUDY DURAT, Tumor Site: Type of Lesion: MAMMARY GLAND: ADENOCARCINOMA): active; positive | carcinogen call (Species: RAT, Strain/Sex: STRAIN-CD/FEMALE, Route: SUBCUTANEOUS, Dose: 0, 6.3 UMOL (TOTAL DOSE) ADMINISTERED OVER 8 WK BEGINNING ON DAY OF BIRTH (STUDY DURATION: 67 WK), Tumor Site: Type of Lesion: MAMMARY GLAND: TUMOR): active; positive | carcinogen call (Species: RAT, Strain/Sex: STRAIN-CD/FEMALE, Route: SUBCUTANEOUS, Dose: 0, 63 UMOL (TOTAL DOSE) ADMINISTERED OVER 8 WK BEGINNING WITHIN 24 HR OF BIRTH (STUDY DURATION: 86 WK), Tumor Site: Type of Lesion: MAMMARY GLAND: TUMOR): active; positive | carcinogen call (Species: RAT, Strain/Sex: STRAIN-CD/FEMALE, Route: SUBCUTANEOUS, Dose: 0, 100 UMOL/KG BW IN DMSO 1/WK FOR 4 WK (STUDY DURATION: 90 WK), Tumor Site: Type of Lesion: MAMMARY GLAND: FIBROADENOMA): active; positive | carcinogen call (Species: RAT, Strain/Sex: STRAIN-CD/FEMALE, Route: SUBCUTANEOUS, Dose: 0, 100 UMOL/KG/BW IN 70 UMOL/ML DMSO 1/WK FOR 4 WK (TOTAL DOSE: 0; 74.3 UMOL) ADMINISTERED TO WEANLING RATS (STUDY DURAT, Dose: 0, 100 UMOL/KG/BW IN 70 UMOL/ML DMSO 1/WK FOR 4 WK (TOTAL DOSE: 0; 74.3 UMOL) ADMINISTERED TO WEANLING RATS (STUDY DURAT, Tumor Site: Type of Lesion: MAMMARY GLAND: FIBROADENOMA): active; positive | carcinogen call (Species: RAT, Strain/Sex: STRAIN-CD/FEMALE, Route: SUBCUTANEOUS, Dose: 50, 100 UMOL/KG IN DMSO 1/WK FOR 8 WK, Tumor Site: Type of Lesion: INJECTION SITE: FIBROSARCOMA, MAMMARY GLAND: ADENOCARCINOMA): active; positive | carcinogen call (Species: RAT, Strain/Sex: STRAIN-CD/MALE, Route: SUBCUTANEOUS, Dose: 50, 100 UMOL/KG IN DMSO 1/WK FOR 8 WK, Tumor Site: Type of Lesion: INJECTION SITE: FIBROSARCOMA): active; positive

Source: PubChem BioAssay AID1259411 (Chemical Carcinogenesis Research Information System (CCRIS), 2018)
